In patent publication US10383823B2 (Mallinckrodt LLC, priority 2013, dated 2019):

Experiments:
[1] = test system: A427 human NSCLC xenografts; conditions: single treatment, 14 days post injection, equivalent cisplatin levels
KB tumors = format: in vivo; conditions: KB tumored nude mice, dosed at 8 mg/kg cisplatin
[2] = mouse KB tumor model

SMILES: N.N.[Cl][Pt][Cl] [Cisplatin, (SP-4-2)-diamminedichloridoplatinum (II)]
- tumor growth inhibition [1]: 30%
- peak tumor DNA/Pt adduct (KB tumors): less than 10 pg of Pt/μg of DNA
- maximum tolerated dose (MTD) [2]: less than 10 mg/kg
